Assay results reported in patent US20250136606A1, “MODULATORS OF TRPML, THEIR COMPOSITIONS AND METHODS OF USE” (Caraway Therapeutics, Inc., priority 2021, published 2025).
Read-outs that look alike come from different tables or passages of the source.

What was measured:
Type in all cases: cell-based
TRPML1 = TRPML1 (Homo sapiens, UniProt Q9GZU1); test: Fluorescent TRPML1 assay (Fluo4-AM calcium fluorescence in doxycycline-induced HEK-293 Trex cells)
In short: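 HEK-293 Trex cells stably carrying human TRPML1 (surface-trafficking mutant) were induced overnight with 0.5 ug/mL doxycycline, loaded with 1 micromolar Fluo4-AM, and suspended in Ringer's with 10 mM calcium. Compounds at 20 micromolar to 6 nanomolar final, half-log steps, triplicate; fluorescence 480/540 nm gave percent activity versus controls and EC50 by non-linear regression.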

TRPML3 = molecular target: T1, TRPML3 (Homo sapiens, UniProt Q8TDD5); test: Fluorescent TRPML3 assay (performed as for TRPML1, substituting the TRPML3 subtype)
T1 construct: expressed in transfected cells
T1 sequence (Q8TDD5 1-553): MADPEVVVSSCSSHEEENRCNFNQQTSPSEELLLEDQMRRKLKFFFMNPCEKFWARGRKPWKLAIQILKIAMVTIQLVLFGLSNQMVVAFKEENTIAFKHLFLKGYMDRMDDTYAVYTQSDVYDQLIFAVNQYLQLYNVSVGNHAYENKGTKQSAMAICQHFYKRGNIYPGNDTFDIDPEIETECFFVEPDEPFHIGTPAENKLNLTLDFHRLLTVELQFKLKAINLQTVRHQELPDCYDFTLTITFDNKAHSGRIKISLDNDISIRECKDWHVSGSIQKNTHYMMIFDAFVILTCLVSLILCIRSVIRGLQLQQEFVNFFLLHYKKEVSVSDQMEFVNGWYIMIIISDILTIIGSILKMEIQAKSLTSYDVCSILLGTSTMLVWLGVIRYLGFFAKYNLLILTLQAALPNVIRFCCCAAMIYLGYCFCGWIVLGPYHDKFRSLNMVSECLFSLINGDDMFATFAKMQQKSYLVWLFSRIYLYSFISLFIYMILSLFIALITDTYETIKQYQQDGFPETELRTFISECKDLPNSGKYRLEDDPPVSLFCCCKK
In short: (§1)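 HEK-293 Trex cells with doxycycline-induced (0.5 ug/mL) surface-directed human TRPML subtype, loaded with 1 μM Fluo4-AM, resuspended in Ringer's with 10 mM calcium. Compounds at 20 μM to 6 nM final in half-log steps, triplicate; fluorescence ex 480/em 540; EC50 by non-linear regression versus plate controls.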

TRPML2 = molecular target: T2, TRPML2 (Homo sapiens, UniProt Q8IZK6); test: Fluorescent TRPML2 assay (performed as for TRPML1, substituting the TRPML2 subtype)
T2 construct: expressed in transfected cells
T2 sequence (Q8IZK6 1-566): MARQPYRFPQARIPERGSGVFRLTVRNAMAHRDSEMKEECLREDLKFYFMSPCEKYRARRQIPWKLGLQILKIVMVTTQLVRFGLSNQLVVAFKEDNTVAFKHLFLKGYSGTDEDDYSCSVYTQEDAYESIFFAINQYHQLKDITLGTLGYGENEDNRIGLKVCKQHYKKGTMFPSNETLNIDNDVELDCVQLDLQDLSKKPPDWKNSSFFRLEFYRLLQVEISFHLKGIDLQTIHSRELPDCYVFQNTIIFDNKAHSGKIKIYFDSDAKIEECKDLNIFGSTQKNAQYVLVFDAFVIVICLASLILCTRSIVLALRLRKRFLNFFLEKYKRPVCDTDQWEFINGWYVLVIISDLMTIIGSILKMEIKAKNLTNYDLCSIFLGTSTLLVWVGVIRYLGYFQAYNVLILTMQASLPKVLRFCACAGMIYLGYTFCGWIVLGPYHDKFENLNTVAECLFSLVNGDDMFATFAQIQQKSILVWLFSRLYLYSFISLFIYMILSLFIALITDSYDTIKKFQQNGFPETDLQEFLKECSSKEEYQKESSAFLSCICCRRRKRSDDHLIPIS
In short: as §1

Sequence of TRPML1 (Q9GZU1 whole entry L15A/L16A/L577A/L578A, form open): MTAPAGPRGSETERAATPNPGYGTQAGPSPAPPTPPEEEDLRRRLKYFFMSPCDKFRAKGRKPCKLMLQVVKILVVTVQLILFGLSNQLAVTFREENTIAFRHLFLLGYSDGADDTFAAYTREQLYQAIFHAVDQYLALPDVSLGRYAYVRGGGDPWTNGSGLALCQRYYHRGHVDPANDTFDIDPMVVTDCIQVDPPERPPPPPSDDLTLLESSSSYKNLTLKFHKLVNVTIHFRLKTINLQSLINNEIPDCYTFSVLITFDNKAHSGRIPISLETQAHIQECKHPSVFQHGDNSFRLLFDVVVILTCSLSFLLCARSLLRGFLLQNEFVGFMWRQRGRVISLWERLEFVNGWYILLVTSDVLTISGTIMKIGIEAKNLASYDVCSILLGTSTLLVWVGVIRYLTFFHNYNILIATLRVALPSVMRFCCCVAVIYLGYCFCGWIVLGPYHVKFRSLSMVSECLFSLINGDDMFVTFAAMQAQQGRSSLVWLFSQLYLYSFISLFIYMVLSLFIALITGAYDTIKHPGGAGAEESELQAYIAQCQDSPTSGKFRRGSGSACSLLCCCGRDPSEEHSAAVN

| Compound | EC50 (TRPML1; fluorescent calcium assay) | EC50 (TRPML3; fluorescent calcium assay) | EC50 (TRPML2; fluorescent calcium assay) | EC50 (TRPML1) | EC50 (TRPML3) | EC50 (TRPML2) |
| --- | --- | --- | --- | --- | --- | --- |
| Cc1nccnc1-c1cn(-c2cc(F)cc(F)c2)c2ncnc(N3CCN(C(=O)OC(C)(C)C(F)(F)F)[C@H](C)C3)c12 [Compound 243, 1,1,1-trifluoro-2-methylpropan-2-yl (R)-4-(7-(3,5-difluorophenyl)-5-(3-methylpyrazin-2-yl)-7H-pyrrolo[2,3-d]pyrimidin-4-yl)-2-methylpiperazine-1-carboxylate] | 100 to 500 nM | 100 to 500 nM | 500 to 2000 nM | – | – | – |
| C[C@@H]1CN(c2ncnc3c2c(C2CCC2)cn3-c2cc(F)cc(F)c2)[C@@H](C)CN1C(=O)OC(C)(C)C [Compound 648, tert-butyl (2R,5S)-4-(5-cyclobutyl-7-(3,5-difluorophenyl)-7H-pyrrolo[2,3-d]pyrimidin-4-yl)-2,5-dimethylpiperazine-1-carboxylate] | – | – | – | 500 to 2000 nM | 100 to 500 nM | 500 to 2000 nM |
| C[C@H]1CN(C(=O)OC(C)(C)C)CCN1c1ncnc2c1c(-c1cccnc1)cn2-c1cccc(F)c1 [Compound 226, tert-butyl (S)-4-(7-(3-fluorophenyl)-5-(pyridin-3-yl)-7H-pyrrolo[2,3-d]pyrimidin-4-yl)-3-methylpiperazine-1-carboxylate] | 100 to 500 nM | 100 to 500 nM | 500 to 2000 nM | – | – | – |
| C[C@H]1CN(C(=O)OC(C)(C)C)CCN1c1ncnc2c1c(N1CCN(C)CC1)cn2-c1cc(C#N)ccn1 [Compound 381, tert-butyl (S)-4-(7-(4-cyanopyridin-2-yl)-5-(4-methylpiperazin-1-yl)-7H-pyrrolo[2,3-d]pyrimidin-4-yl)-3-methylpiperazine-1-carboxylate] | > 2000 nM | > 2000 nM | > 2000 nM | – | – | – |
| C[C@H]1CN(C(=O)OC(C)(C)C(F)(F)F)CCN1c1ncnc2c1c(C1CC1)cn2-c1cc(C#N)ccn1 [Compound 318, 1,1,1-trifluoro-2-methylpropan-2-yl (S)-4-(7-(4-cyanopyridin-2-yl)-5-cyclopropyl-7H-pyrrolo[2,3-d]pyrimidin-4-yl)-3-methylpiperazine-1-carboxylate] | < 100 nM | 100 to 500 nM | 500 to 2000 nM | – | – | – |
| C[C@@H]1CN(c2ncnc3c2c(C(F)(F)F)cn3-c2cccc(C#N)c2)[C@@H](C)CN1C(=O)OC(C)(C)C [Compound 513, tert-butyl (2R,5S)-4-(7-(3-cyanophenyl)-5-(trifluoromethyl)-7H-pyrrolo[2,3-d]pyrimidin-4-yl)-2,5-dimethylpiperazine-1-carboxylate] | – | – | – | < 100 nM | < 100 nM | 500 to 2000 nM |
| CC(C)(C)OC(=O)N1CCN(c2ncnc3c2c(-c2ccccc2F)cn3-c2cc(C#N)ccn2)C2(CC2)C1 [Compound 435, tert-butyl 4-(7-(4-cyanopyridin-2-yl)-5-(2-fluorophenyl)-7H-pyrrolo[2,3-d]pyrimidin-4-yl)-4,7-diazaspiro[2.5]octane-7-carboxylate] | < 100 nM | < 100 nM | < 100 nM | – | – | – |
| C[C@@H]1CN(c2ncnc3c2c(C(F)F)cn3C2CCCCC2)[C@@H](C)CN1C(=O)OC(C)(C)C [Compound 627, tert-butyl (2R,5S)-4-(7-cyclohexyl-5-(difluoromethyl)-7H-pyrrolo[2,3-d]pyrimidin-4-yl)-2,5-dimethylpiperazine-1-carboxylate] | – | – | – | 100 to 500 nM | 100 to 500 nM | > 2000 nM |
| C[C@@H]1CN(c2ncnc3c2c(OC(F)(F)F)cn3-c2cc(C#N)ccn2)[C@@H](C)CN1C(=O)OC(C)(C)C [Compound 524, tert-butyl (2R,5S)-4-(7-(4-cyanopyridin-2-yl)-5-(trifluoromethoxy)-7H-pyrrolo[2,3-d]pyrimidin-4-yl)-2,5-dimethylpiperazine-1-carboxylate] | – | – | – | < 100 nM | < 100 nM | < 100 nM |
| CC1CC1c1cn(-c2cccc(C#N)c2)c2ncnc(N3CCN(C(=O)OC(C)(C)C)C[C@@H]3C)c12 (stereo partly drawn) [Compound 616] | – | – | – | < 100 nM | < 100 nM | < 100 nM |
| C[C@@H]1CN(c2ncnc3c2c(C(C)(C)C)cn3-c2cc(C#N)ccn2)[C@@H](C)CN1C(=O)OC(C)(C)C [Compound 525, tert-butyl (2R,5S)-4-(5-(tert-butyl)-7-(4-cyanopyridin-2-yl)-7H-pyrrolo[2,3-d]pyrimidin-4-yl)-2,5-dimethylpiperazine-1-carboxylate] | – | – | – | < 100 nM | < 100 nM | < 100 nM |
| C[C@H]1CN(C(=O)OC(C)(C)C)CCN1c1ncnc2c1c(C1CC1)cn2-c1cc(C#N)ccn1 [Compound 260] | < 100 nM | < 100 nM | < 100 nM | – | – | – |
| C[C@@H]1CN(c2ncnc3c2c(C(F)(F)F)cn3-c2nccc(C#N)n2)[C@@H](C)CN1C(=O)OC(C)(C)C [Compound 510, tert-butyl (2R,5S)-4-(7-(4-cyanopyrimidin-2-yl)-5-(trifluoromethyl)-7H-pyrrolo[2,3-d]pyrimidin-4-yl)-2,5-dimethylpiperazine-1-carboxylate] | – | – | – | 100 to 500 nM | < 100 nM | > 2000 nM |
| C[C@@H]1CN(c2ncnc3c2c(C(F)(F)F)cn3-c2cc(C#N)ccn2)[C@@H](C)CN1C(=O)OC1(C)CC1 [Compound 519, 1-methylcyclopropyl (2R,5S)-4-(7-(4-cyanopyridin-2-yl)-5-(trifluoromethyl)-7H-pyrrolo[2,3-d]pyrimidin-4-yl)-2,5-dimethylpiperazine-1-carboxylate] | – | – | – | < 100 nM | < 100 nM | 100 to 500 nM |
| C[C@@H]1CN(c2ncnc3c2c(C(F)F)cn3C2CCCC(C#N)C2)[C@@H](C)CN1C(=O)OC(C)(C)C (stereo partly drawn) [Compound 633, tert-butyl (2R,5S)-4-(7-(3-cyanocyclohexyl)-5-(difluoromethyl)-7H-pyrrolo[2,3-d]pyrimidin-4-yl)-2,5-dimethylpiperazine-1-carboxylate] | – | – | – | 500 to 2000 nM | 500 to 2000 nM | > 2000 nM |
| C[C@H]1CN(C(=O)OCC(F)(F)F)CCN1c1ncnc2c1c(C1CC1)cn2-c1cc(C#N)ccn1 [Compound 368, 2,2,2-trifluoroethyl (S)-4-(7-(4-cyanopyridin-2-yl)-5-cyclopropyl-7H-pyrrolo[2,3-d]pyrimidin-4-yl)-3-methylpiperazine-1-carboxylate] | < 100 nM | < 100 nM | 500 to 2000 nM | – | – | – |
| COc1cncc(-n2cc(-c3ccccc3F)c3c(N4CCN(C(=O)OC(C)(C)C)C[C@@H]4C)ncnc32)c1 [Compound 105, tert-butyl (S)-4-(5-(2-fluorophenyl)-7-(5-methoxypyridin-3-yl)-7H-pyrrolo[2,3-d]pyrimidin-4-yl)-3-methylpiperazine-1-carboxylate] | 500 to 2000 nM | 500 to 2000 nM | > 2000 nM | – | – | – |
| C[C@H]1CN(C(=O)OC(C)(C)C)CCN1c1ncnc2c1c(C1COC1)cn2-c1cc(F)cc(F)c1 [Compound 475, tert-butyl (S)-4-(7-(3,5-difluorophenyl)-5-(oxetan-3-yl)-7H-pyrrolo[2,3-d]pyrimidin-4-yl)-3-methylpiperazine-1-carboxylate] | 500 to 2000 nM | 100 to 500 nM | > 2000 nM | – | – | – |
| Cc1cn(-c2cc(F)ccn2)c2ccnc(N3C[C@@H](C)N(C(=O)OC(C)(C)C)C[C@@H]3C)c12 [Compound 701, tert-butyl (2R,5S)-4-(1-(4-fluoropyridin-2-yl)-3-methyl-1H-pyrrolo[3,2-c]pyridin-4-yl)-2,5-dimethylpiperazine-1-carboxylate] | – | – | – | < 100 nM | 100 to 500 nM | > 2000 nM |
